# Laboratory results published in ChEMBL document CHEMBL4837249, “Discovery of Potent Antiallergic Agents Based on an o-Aminopyridinyl Alkynyl Scaffold” (J Med Chem, 2021).
# The source made the active and inactive calls. No cut-off for these calls is given here.
# Experiments:
# [1] = Clearance in BALB/c mouse at 2 mg/kg, iv measured up to 24 hrs by LC-MS/MS analysis; assay type: ADME, organism-based; conditions: in vivo
# Mus musculus [2] = experiment: Antiallergic activity against anti-DNP IgE sensitized house dust mite-induced BALB/c mouse pulmonary allergic inflammation model assessed as by reduction in serum total IgE level at 40 mg/kg, po measured every 5 mins for 60 mins; assay type: functional, organism-based
# RBL-2H3 = experiment: Inhibition of Akt phosphorylation in rat RBL-2H3 cells assessed as inhibition of Fc epsilonRI-mediated signal transduction by Western blot analysis; assay type: cell-based; conditions: dose 8-200 nM
# [3] = Toxicity in anti-DNP IgE sensitized BALB/c mouse assessed as body weight loss at 40 mg/kg, po; assay type: organism-based; conditions: in vivo
# [4] = Toxicity in anti-DNP IgE sensitized BALB/c mouse assessed as vomiting at 40 mg/kg, po; assay type: organism-based; conditions: in vivo
# [5] = molecular target: Proto-oncogene tyrosine-protein kinase Src (Rattus norvegicus) (UniProt Q9WUD9); experiment: Inhibition of Src phosphorylation in rat RBL-2H3 cells assessed as inhibition of Fc epsilonRI-mediated signal transduction by Western blot analysis; assay type: cell-based; conditions: dose 8-200 nM
# Sequence of Proto-oncogene tyrosine-protein kinase Src (Rattus norvegicus) (Q9WUD9 2-536 limits assumed): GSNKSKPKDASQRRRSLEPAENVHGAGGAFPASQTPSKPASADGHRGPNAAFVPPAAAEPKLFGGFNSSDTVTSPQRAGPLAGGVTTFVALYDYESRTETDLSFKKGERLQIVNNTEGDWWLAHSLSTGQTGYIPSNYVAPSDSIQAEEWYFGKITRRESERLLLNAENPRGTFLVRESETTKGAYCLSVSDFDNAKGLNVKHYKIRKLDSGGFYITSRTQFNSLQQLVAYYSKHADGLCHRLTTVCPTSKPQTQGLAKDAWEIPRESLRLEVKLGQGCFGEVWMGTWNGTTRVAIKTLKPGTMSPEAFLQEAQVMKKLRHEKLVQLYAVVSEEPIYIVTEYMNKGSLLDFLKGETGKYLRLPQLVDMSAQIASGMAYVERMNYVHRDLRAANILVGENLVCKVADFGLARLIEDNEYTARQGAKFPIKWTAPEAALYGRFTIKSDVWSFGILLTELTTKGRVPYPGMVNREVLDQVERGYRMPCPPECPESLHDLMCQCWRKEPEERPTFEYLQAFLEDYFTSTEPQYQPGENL
# [6] = Toxicity in anti-DNP IgE sensitized BALB/c mouse assessed as hemorrhage at 40 mg/kg, po; assay type: organism-based; conditions: in vivo
# [7] = Toxicity in anti-DNP IgE sensitized BALB/c mouse assessed as splenomegaly at 40 mg/kg, po; assay type: organism-based; conditions: in vivo
# [8] = molecular target: Tyrosine-protein kinase SYK (Rattus norvegicus) (UniProt Q64725); experiment: Inhibition of Syk phosphorylation in rat RBL-2H3 cells assessed as inhibition of Fc epsilonRI-mediated signal transduction by Western blot analysis; assay type: cell-based; conditions: dose 8-200 nM
# Sequence of Tyrosine-protein kinase SYK (Rattus norvegicus) (Q64725 whole entry, looked up): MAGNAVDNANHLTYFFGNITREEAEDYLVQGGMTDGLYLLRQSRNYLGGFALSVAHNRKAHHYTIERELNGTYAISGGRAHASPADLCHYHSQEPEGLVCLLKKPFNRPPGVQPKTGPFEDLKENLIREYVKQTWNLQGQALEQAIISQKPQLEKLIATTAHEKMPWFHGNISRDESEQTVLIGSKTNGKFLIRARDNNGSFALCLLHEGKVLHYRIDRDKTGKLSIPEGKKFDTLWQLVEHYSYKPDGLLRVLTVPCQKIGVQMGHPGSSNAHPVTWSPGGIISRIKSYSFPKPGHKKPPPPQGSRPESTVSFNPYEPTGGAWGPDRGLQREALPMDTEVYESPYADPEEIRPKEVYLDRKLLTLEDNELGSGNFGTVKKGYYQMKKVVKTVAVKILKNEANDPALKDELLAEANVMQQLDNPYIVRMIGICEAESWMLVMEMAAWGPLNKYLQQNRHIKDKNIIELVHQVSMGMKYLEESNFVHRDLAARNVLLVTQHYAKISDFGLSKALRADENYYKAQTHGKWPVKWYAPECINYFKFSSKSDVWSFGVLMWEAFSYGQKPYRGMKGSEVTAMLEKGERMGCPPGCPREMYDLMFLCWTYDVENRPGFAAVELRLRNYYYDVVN
# [9] = Tmax in BALB/c mouse at 20 mg/kg, po measured up to 24 hrs by LC-MS/MS analysis; assay type: ADME, organism-based; conditions: in vivo
# Mus musculus [10] = experiment: Antiallergic activity against anti-DNP IgE sensitized passive systemic anaphylaxis-induced BALB/c mouse pulmonary allergic inflammation model assessed as by decrease in body temperature drop at 40 mg/kg, po measured every 5 mins for 60 mins; assay type: functional, organism-based
smiles,measurement,setting,value
Cc1ccc(C(=O)Nc2cc(C(F)(F)F)cc(C(F)(F)F)c2)cc1C#Cc1cc(-c2cnn(C)c2)cnc1N,clearance,[1],15.2 mL/min/kg
same,Activity,Mus musculus [2],Active
same,inhibition,RBL-2H3,Dose-Dependent Effect
same,Activity,[3],Non-Toxic
same,Activity,[4],Non-Toxic
same,inhibition,[5],Dose-Dependent Effect
same,Activity,[6],Non-Toxic
same,Activity,[7],Non-Toxic
same,inhibition,[8],Dose-Dependent Effect
same,Tmax,[9],2.67 h
same,Activity,Mus musculus [10],Active
